≈ marks a conversion by molar mass, not a printed value. Entries after “also recorded” stand apart in the source; their conditions may differ. Like-named read-outs stand apart in the source and are kept apart here.
Tests used:
HeL023 cells = test: Flow cytometry (PI) G2/M accumulation and sub-G1 apoptosis, HeL023; format: cell-based, human; conditions: for EC50: Homo sapiens
Experimental: (§1) A375 and NCTC2544 adherent cells were trypsinized, mixed with floating cells, washed with PBS and permeabilised in 70% (vol/vol) ethanol/PBS solution at 4° C. for at least 24 hours. Jurkat, HeL023 and PBMC cells were centrifuged for 10 minutes at 1000×g. The cell pellet was then resuspended and permeabilised in 70% (vol/vol) ethanol/PBS solution at 4° C. for at least 24 hours. The cells were washed with PBS and the DNA was stained with a PBS solution, containing 20 μg/ml of propidium iodide and 100 μg/ml of RNAse, at room temperature for 30 minutes. Cells were analysed by FACScan (Becton-Dickinson) and the content of DNA was evaluated by the Cell-LISYS program (Becton-Dickinson). Cell distribution among cell cycle phases and apoptotic cells was evaluated as previously described (Secchiero et al., 2001). Briefly, the cell cycle distribution is shown as the percentage of cells containing 2n (G1 phase), 4n (G2 and M phases), 4n>x>2n. DNA amount (S phase) judged by propidium iodide staining. The apoptotic population is the percentage of cells with DNA content lower than 2n.
(§2) To verify the role of A3 receptor antagonists on paclitaxel and vindesine mediated alteration of cell proliferation and apoptosis, testing was performed with additional cell lines. […] Experimental conditions are similar to those for the A375 cell testing.

Jurkat cells = test: Flow cytometry (PI) G2/M accumulation and sub-G1 apoptosis, Jurkat; format: cell-based, human; conditions: for EC50: Homo sapiens
Experimental: as §1, §2

NCTC2544 cells = test: Flow cytometry (PI) G2/M accumulation and sub-G1 apoptosis, NCTC2544; format: cell-based, human; conditions: NCTC 2544; for EC50: Homo sapiens
Experimental: as §1, §2

A375 cells = test: Flow cytometry (PI) G2/M accumulation and sub-G1 apoptosis, A375; format: cell-based, human; conditions: for EC50: Homo sapiens
Experimental: as §1
Cell proliferation and apoptosis are quantified by flow cytometer analysis after propidium-iodide (PI) DNA staining.

PBMC blasts = test: Flow cytometry (PI) G2/M accumulation, PBMC blasts; format: cell-based; conditions: Homo sapiens, DMSO (no antagonist)
Experimental: Cells are passaged two or three times weekly at a ratio between 1:5 and 1:10. Lymphocytes were isolated from buffy coats kindly provided by the Blood Bank of the University Hospital of Ferrara. Blood donated by healthy volunteers, after informed consent for research was obtained. Lymphocytes were isolated by density gradient centrifugation (Ficoll/Histopaque 1.077 g/ml). The cells are stimulated with purified phytohemoagglutinin (1 μg/ml) and expanded in RPMI medium added of interleukin 2 (20 Units/ml) and 10% fetal calf serum.
Jurkat, HeL023 and PBMC cells were centrifuged for 10 minutes at 1000×g. The cell pellet was then resuspended and permeabilised in 70% (vol/vol) ethanol/PBS solution at 4° C. for at least 24 hours. The cells were washed with PBS and the DNA was stained with a PBS solution, containing 20 μg/ml of propidium iodide and 100 μg/ml of RNAse, at room temperature for 30 minutes. Cells were analysed by FACScan (Becton-Dickinson) and the content of DNA was evaluated by the Cell-LISYS program (Becton-Dickinson). Cell distribution among cell cycle phases and apoptotic cells was evaluated as previously described (Secchiero et al., 2001). Briefly, the cell cycle distribution is shown as the percentage of cells containing 2n (G1 phase), 4n (G2 and M phases), 4n>x>2n. DNA amount (S phase) judged by propidium iodide staining. […]

[1] = target: T1, P-gp drug efflux activity in A375 cells (Homo sapiens, UniProt P08183); test: Rhodamine 123 efflux assay, A375 cells; format: cell-based; conditions: 10 μM, FRES comparable to FMAX
T1 construct: endogenous in cells; host or cells: A375 human melanoma cells (ATCC)
Experimental: (§3) 5×10^5 cells from each subline were loaded with 50 ng/ml of rhodamine 123 for 30 minutes at 37° C. in medium. The cells were washed and resuspended in dye-staining agent free medium for 3 hours at 37° C. to allow rhodamine 123 efflux. The cells were then washed twice and the fluorescence of intracellular rhodamine 123 were analysed with Flow cytometer (residual fluorescence FRES). The fluorescence was compared with loaded cells maintained at 4° C. to prevent drug export (maximal fluorescence FMAX). […] Cells from each subline that were not being exposed to rhodamine 123 were used as negative controls.
(§4) Rhodamine 123 (Rh123) retention, a P-gp functional assay, was studied in all cell lines. This assay was performed by incubating cells with Rh123 and determining Rh123 accumulation by measuring its fluorescence. The maximum load of Rh123 (FMAX) was quantified at the end of treatment harvesting the cells and storing them at 4° C. to prevent any active Rh123 efflux . The P-gp drug efflux was allowed incubating Rh123-loaded cells in fresh new medium Rh123-free for 3 hours at 37° C. After this incubation, residual fluorescence (FRES) was measured and compared to FMAX.

[2] = test system: human colon carcinoma HT29 cell line; test: MTT growth inhibitory assay, HT29; format: cell-based; conditions: for IC50: HT-29
Experimental: (§5) One of the growth inhibitory assays is the MTT assay. Cells (1000-1500 cells/well) are seeded in a 96-well micro culture plate in a total volume of 100 μl/well. After overnight incubation in a humidified incubator at 37° C. with 5% CO2-95% air, chemotherapeutic drug solutions diluted with culture medium at various concentrations are added in the amount of 100 μl to each well. The plates are placed in a humidified incubator at 37° C. with 5% CO2-95% air for 7-10 days. The plates are then centrifuged briefly and 100 μl of the growth medium is removed. Cell cultures are incubated with 50 μl of MTT [3-(4,5-dimethylthiazol-2-yl)-2,5-diphenyl-tetrazolium bromide] reagent (1 mg/ml in Dulbecco's phosphate-buffered saline) for 4 hr at 37° C. The resultant purple formazan precipitate is solubilized with 200 μl of 0.04 N HCl in isopropanol. Absorbance is measured at a wavelength of 595 nm and at a reference wavelength of 655 nm using a Bio-Rad Model 3550 Microplate Reader. Preferably, all tests are run in duplicate for each dose level.
(§6) The EZED50 computer program estimates the concentration of agent that inhibits cell growth by 50% as compared to the control cells. This is termed the IC50 and is determined by curve fitting test data using the following four logistic equation. [formula]
(§7) Inhibitory assay testing is also used to determine enhanced therapeutic effects from combining A3 receptor antagonists with other tumor inhibiting agents. The inhibitory cell growth assays are run with and without selected concentrations of A3 receptor antagonists. An enhanced therapeutic effect is present when the IC50 of the tumor inhibiting agent is lower with the A3 receptor antagonist.
(§8) Quantitatively, the enhancement factor (EF) is calculated by dividing the IC50 value of the tumor inhibiting agent for a tumor cell line by the IC50 value of the agent with A3 receptor antagonist for the same cell line: [formula]

[3] = test system: human melanoma A375 cell line; test: MTT growth inhibitory assay, A375; format: cell-based
Experimental: as §5, §6, §7, §8

[4] = target: T2, P-gp drug efflux activity in HeL023 cells (Homo sapiens, UniProt P08183); test: Rhodamine 123 efflux assay, HeL023 cells; format: cell-based; conditions: Rh123 efflux, concentrations of Table 11 (MRE3008F20 10 μM)
T2 construct: nearly all (100±1%) the cells expressing high level of functional P-gp; endogenous in cells; host or cells: HeL023 human erythroleukemia cells
Experimental: as §3, §4

[5] = test system: human lung carcinoma SKMES; test: MTT growth inhibitory assay, SKMES; format: cell-based
Experimental: as §5, §6, §7, §8

rA1 adenosine receptor = target: T3, rA1 adenosine receptor (Rattus norvegicus, UniProt P25099); test: Binding affinity at rA1 adenosine receptor
T3 sequence (P25099 1-326): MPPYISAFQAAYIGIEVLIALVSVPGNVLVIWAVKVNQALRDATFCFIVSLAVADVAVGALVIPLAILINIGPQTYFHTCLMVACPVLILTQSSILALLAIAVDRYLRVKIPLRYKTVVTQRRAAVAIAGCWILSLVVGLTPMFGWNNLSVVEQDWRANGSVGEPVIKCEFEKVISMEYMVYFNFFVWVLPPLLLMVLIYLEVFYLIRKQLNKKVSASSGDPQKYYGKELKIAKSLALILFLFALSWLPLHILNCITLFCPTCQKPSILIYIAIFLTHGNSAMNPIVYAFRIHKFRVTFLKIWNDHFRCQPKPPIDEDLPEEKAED

[6] = test system: human pancreatic cancer Panc-1; test: MTT growth inhibitory assay, Panc-1; format: cell-based
Experimental: as §5, §6, §7, §8

A375 melanoma cells = test: Colony formation assay of A375 cells; format: cell-based, human
Experimental: FIG. 2 illustrates colony formation assay of A375 cells. Cells were treated with different drugs and colonies were counted after 7 days. The values represent the mean ±SEM of four independent experiments. D=DMSO (control); T=paclitaxel, 0.75 ng/ml; M=MRE 3008F20, 10 μM; C=CI-IB-MECA, 10 μM; TM=paclitaxel plus MRE 3008F20; TC=paclitaxel plus CI-IB-MECA treated cells. *P<0.01 TM versus T. Analysis was by ANOVA followed by Dunnett's test.;
Control plates received the same volume of DMSO alone. After 7 days of growth at 37° C. in humidified atmosphere containing 5% CO2, the cells were fixed with absolute methanol for 5′ and stained with 1/10 Giemsa/phosphate-buffered saline (PBS) staining solution for 10 minutes. Staining solution was removed and colonies of greater than 30 cells were scored as survivors. For each treatment, six individual wells were scored.
Colony formation assay experiments were performed on A375 melanoma cells treated with increasing concentration of paclitaxel (0.25-75 ng/ml). A3 stimulation is achieved with the selective agonist CI-IB-MECA while A3 blockade is obtained with the selective antagonist MRE 3008F20. […] (FIG. 2)

[7] = DMSO (no antagonist), read-out: vindesine EC50 (G2/M accumulation)
[8] = Human Colon Carcinoma HT29, read-out: IC50 growth inhibition, agent used separately
[9] = Homo sapiens, A-375, Human Melanoma A375, read-out: IC50 growth inhibition, agent used separately
[10] = Human Lung Carcinoma SKMES, read-out: IC50 growth inhibition, agent used separately
[11] = Human Pancreatic Cancer Panc-1, read-out: IC50 growth inhibition, agent used separately
[12] = DMSO (no antagonist), read-out: paclitaxel EC50 (G2/M accumulation)

T2 sequence (P08183 whole entry): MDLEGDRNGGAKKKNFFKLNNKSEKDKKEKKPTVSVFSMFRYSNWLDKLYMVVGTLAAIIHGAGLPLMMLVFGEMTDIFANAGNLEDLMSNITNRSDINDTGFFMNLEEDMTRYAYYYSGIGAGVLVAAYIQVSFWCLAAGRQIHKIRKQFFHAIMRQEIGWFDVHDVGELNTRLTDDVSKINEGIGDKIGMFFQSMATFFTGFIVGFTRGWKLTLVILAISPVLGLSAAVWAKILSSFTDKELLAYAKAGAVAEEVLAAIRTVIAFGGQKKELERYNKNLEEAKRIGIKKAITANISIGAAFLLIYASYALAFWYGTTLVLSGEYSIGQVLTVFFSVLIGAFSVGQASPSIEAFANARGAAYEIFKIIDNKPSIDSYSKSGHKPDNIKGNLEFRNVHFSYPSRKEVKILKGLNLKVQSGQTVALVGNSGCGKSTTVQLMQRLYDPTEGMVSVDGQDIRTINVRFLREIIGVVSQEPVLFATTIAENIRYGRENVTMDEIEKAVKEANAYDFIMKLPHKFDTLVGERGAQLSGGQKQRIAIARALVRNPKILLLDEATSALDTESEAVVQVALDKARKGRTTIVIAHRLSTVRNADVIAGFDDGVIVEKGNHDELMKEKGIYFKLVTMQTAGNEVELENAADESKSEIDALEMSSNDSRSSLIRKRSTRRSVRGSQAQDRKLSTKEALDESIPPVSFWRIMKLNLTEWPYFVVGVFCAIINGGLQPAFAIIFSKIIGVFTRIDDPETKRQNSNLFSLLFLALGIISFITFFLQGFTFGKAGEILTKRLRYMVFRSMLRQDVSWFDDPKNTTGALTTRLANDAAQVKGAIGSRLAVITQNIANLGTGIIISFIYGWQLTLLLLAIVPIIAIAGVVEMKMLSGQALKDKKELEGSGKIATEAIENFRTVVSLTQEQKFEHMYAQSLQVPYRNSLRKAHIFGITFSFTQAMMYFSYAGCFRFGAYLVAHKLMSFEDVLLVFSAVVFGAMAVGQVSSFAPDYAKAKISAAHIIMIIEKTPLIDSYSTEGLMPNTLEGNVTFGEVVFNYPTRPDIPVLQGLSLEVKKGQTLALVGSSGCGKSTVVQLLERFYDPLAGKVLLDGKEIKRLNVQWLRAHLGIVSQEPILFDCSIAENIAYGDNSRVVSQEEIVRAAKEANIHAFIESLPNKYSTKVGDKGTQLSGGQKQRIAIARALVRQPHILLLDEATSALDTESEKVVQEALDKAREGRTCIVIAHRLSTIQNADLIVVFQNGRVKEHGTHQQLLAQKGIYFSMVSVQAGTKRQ
T1 sequence (P08183 whole entry): as above

## CC[C@]1(O)C[C@@H]2CN(CCc3c([nH]c4ccccc34)[C@@](C(=O)OC)(c3cc4c(cc3OC)N(C)[C@H]3[C@@](O)(C(N)=O)[C@H](O)[C@]5(CC)C=CCN6CC[C@]43[C@@H]65)C2)C1 [vindesine]
HeL023 cells; DMSO (no antagonist)
  vindesine ECMAX (sub-G1): 33.11 ± 4.02 nM
HeL023 cells; [7]
  EC50: 25.8 ± 3.25 nM
Jurkat cells; [7]
  EC50: 0.93 ± 0.08 nM
NCTC2544 cells; [7]
  EC50: 0.89 ± 0.08 nM
NCTC2544 cells; DMSO (no antagonist)
  vindesine ECMAX (sub-G1): 2.50 ± 0.27 nM
A375 cells; A375, DMSO (no antagonist)
  vindesine ECMAX (sub-G1, maximal apoptosis): 3.54 ± 0.42 nM
A375 cells; A-375, 24 h, read-out: vindesine EC50 (G2/M accumulation)
  EC50: 1.9 ± 0.2 nM
PBMC blasts; read-out: vindesine EC50 (G2/M accumulation)
  EC50: 1.1 ± 0.9 nM

## CCCn1cc2c(nc(NC(=O)Nc3ccc(OC)cc3)n3nc(-c4ccco4)nc23)n1 [MRE3008F20]
[1]
  blockade of P-gp mediated Rh123 transport (in words): completely blockade of P-gp mediated Rh123 transport
HeL023 cells; MRE3008F20 10 μM
  paclitaxel ECMAX with A3 antagonist: 3.19 ± 0.30 ng/mL
  vindesine ECMAX with A3 antagonist: 1.05 ± 0.09 nM
Jurkat cells; MRE3008F20 10 μM
  paclitaxel ECMAX with A3 antagonist: 2.29 ± 0.31 ng/mL
NCTC2544 cells; MRE3008F20 10 μM
  paclitaxel ECMAX with A3 antagonist: 2.55 ± 0.24 ng/mL
  vindesine ECMAX with A3 antagonist: 1.34 ± 0.15 nM
A375 cells; A375, MRE3008F20 10 μM
  paclitaxel ECMAX with A3 antagonist: 3.04 ± 0.32 ng/mL
  vindesine ECMAX with A3 antagonist: 1.66 ± 0.20 nM
A375 cells; A-375, read-out: SEC50 (dose inducing 50% of the enhancing activity to vindesine)
  EC50: 550 ± 60 nM
[2]; HT29, A3 antagonist 1 μg/ml
  Enhancement Factor for docetaxel: 15.0
  Enhancement Factor for doxorubicin: 1.6
  Enhancement Factor for irinotecan HCl: 1.8
  Enhancement Factor for paclitaxel: 2.9
[2]; [8]
  IC50: 39400 ± 7700 ng/mL (≈ 91100 nM)
[3]; A375, A3 antagonist 1 μg/ml
  Enhancement Factor for docetaxel: 63.3
  Enhancement Factor for paclitaxel: 7.1
[3]; A375, A3 antagonist 3 μg/ml
  Enhancement Factor for docetaxel: 6.9
  Enhancement Factor for paclitaxel: 6.4
[3]; A375, A3 antagonist 10 μg/ml
  Enhancement Factor for docetaxel: 5.3
[3]; A375, A3 antagonist 10 μg/ml, paclitaxel 0.0001-0.05 μg/ml
  Enhancement Factor for paclitaxel: 7.1
[3]; A375, A3 antagonist 1, 3 and 10 μg/ml
  enhancement factor for paclitaxel at all three concentrations: 6.4-7.1
[3]; [9]
  IC50: 91300 ± 1500 ng/mL (≈ 211000 nM)
[3]; Homo sapiens, A-375, A375, 10 μg/ml, read-out: growth inhibition in the presence of A3 antagonist alone
  inhibition at 10 µg/mL: 30 to 45%
[4]
  inhibition of P-gp activity (in words): near total P-gp inhibition; also recorded: strong inhibitors of P-gp activity
[5]; [10]
  IC50: 19000 ± 1200 ng/mL (≈ 43900 nM)
[5]; SKMES, A3 antagonist 1 μg/ml
  Enhancement Factor for docetaxel: 3.6
  Enhancement Factor for irinotecan HCL: 2.1
  Enhancement Factor for paclitaxel: 4.1
  Enhancement Factor for vinblastine: 1.2
rA1 adenosine receptor
  Ki: > 10000 nM
[6]; [11]
  IC50: 15800 ± 13500 ng/mL (≈ 36500 nM)
[6]; Panc-1, A3 antagonist 1 μg/ml
  Enhancement Factor for docetaxel: 1.8
  Enhancement Factor for paclitaxel: 1.9
A375 melanoma cells; 10 μM alone, 7 days
  colony formation, % of DMSO control: 59%
A375 melanoma cells; MRE 3008F20 10 μM plus paclitaxel 0.75 ng/ml
  colony formation predicted by geometrical combination: 38%

## CC(=O)O[C@H]1C(=O)[C@@]2(C)[C@H]([C@H](OC(=O)c3ccccc3)[C@]3(O)C[C@H](OC(=O)[C@H](O)[C@@H](NC(=O)c4ccccc4)c4ccccc4)C(C)=C1C3(C)C)[C@]1(OC(C)=O)CO[C@@H]1C[C@@H]2O [paclitaxel]
HeL023 cells; DMSO (no antagonist)
  paclitaxel ECMAX (sub-G1): 33.42 ± 3.55 ng/mL
HeL023 cells; [12]
  EC50: 50.6 ± 5.3 ng/mL
Jurkat cells; DMSO (no antagonist)
  paclitaxel ECMAX (sub-G1): 3.32 ± 0.52 ng/mL
Jurkat cells; [12]
  EC50: 2.96 ± 0.31 ng/mL
NCTC2544 cells; [12]
  EC50: 2.69 ± 0.28 ng/mL
NCTC2544 cells; DMSO (no antagonist)
  paclitaxel ECMAX (sub-G1): 2.69 ± 0.23 ng/mL
A375 cells; A375, DMSO (no antagonist)
  paclitaxel ECMAX (sub-G1, maximal apoptosis): 6.00 ± 0.63 ng/mL
A375 cells; A-375, 24 h, read-out: paclitaxel EC50 (G2/M accumulation)
  EC50: 16.6 ± 2 ng/mL
[2]; [8]
  IC50: 1.12 ± 0.3 ng/mL (≈ 1.31 nM)
[2]; Homo sapiens, HT29, paclitaxel 0.0001-0.05 μg/ml, alone, read-out: IC50 of paclitaxel, A3 antagonist none
  IC50: 2.5 ng/mL (≈ 2.93 nM)
[3]; A375, paclitaxel 0.0001-0.05 μg/ml, alone (control of each antagonist series)
  IC50 of paclitaxel, A3 antagonist none: 4.2 ng/mL
[3]; Homo sapiens, A-375, A375, paclitaxel 0.0001-0.05 μg/ml, alone (control of each antagonist series), read-out: IC50 of paclitaxel, A3 antagonist none
  IC50: 4.4 ng/mL (≈ 5.15 nM)
[3]; Homo sapiens, A-375, A375, paclitaxel 0.0002-0.1 μg/ml, alone, read-out: IC50 of paclitaxel, A3 antagonist none
  IC50: 4.6 ng/mL (≈ 5.39 nM)
[3]; [9]
  IC50: 4 ± 0.2 ng/mL (≈ 4.68 nM)
[5]; Homo sapiens, SKMES, paclitaxel 0.0001-0.05 μg/ml, alone, read-out: IC50 of paclitaxel, A3 antagonist none
  IC50: 3.3 ng/mL (≈ 3.86 nM)
[5]; [10]
  IC50: 2.6 ± 0.7 ng/mL (≈ 3.04 nM)
PBMC blasts; read-out: paclitaxel EC50 (G2/M accumulation)
  EC50: 5.3 ± 0.6 ng/mL
[6]; Homo sapiens, Panc-1, paclitaxel 0.0001-0.05 μg/ml, alone, read-out: IC50 of paclitaxel, A3 antagonist none
  IC50: 2.9 ng/mL (≈ 3.4 nM)
[6]; [11]
  IC50: 2.7 ± 0.3 ng/mL (≈ 3.16 nM)
A375 melanoma cells; paclitaxel 0.75 ng/ml alone, 7 days
  colony formation, % of the control: 64%
